What is called IC50 is the concentration needed to halve the response being measured.

One experiment has as its target Cathepsin H (Homo sapiens (Human), UniProt P09668). In words: Cathepsin H inhibition assay. In kind it is biochemical. The conditions noted are these: Table 4; read-out: IC50 (nM) CatH.
The next experiment has as its target Kgp (Porphyromonas gingivalis (Bacteroides gingivalis), UniProt Q51817). In words: Cy5 activity-based probe detection of Kgp in P. gingivalis lysate. The experiment is classed as binding. The conditions noted are these: 100 nM, FIG. 9C. How it is done: It has a warhead that binds to the Kgp active site, a peptide-based core, and a Cy5 fluorophore for detection. Labeled target proteins can be visualized by biochemical separation of a sample with fractionation by 2-D gel electrophoresis and detection of fluorescent signals from Cy5 at the appropriate excitation and emission wavelength. Incubation of a fixed concentration of the probe following binding of Kgp to a test compound (e.g., a candidate Kgp inhibitor) results in binding of the activity probe to Kgp active sites not already bound by the test compound.
10^8 bacteria were collected and centrifuged at 5000 g for 10 min at 4° C., and the supernatant was discarded. The bacterial cell pellet was lysed with 1 mL of B-Per lysis buffer (Thermo Fischer) on ice for 10 min, then centrifuged for 10 min at 14000 g, 4° C. Supernatant-containing protein lysate was collected. Biological samples were lysed with B-Per lysis buffer for 10 min at 4° C.
Biological samples, P. gingivalis lysate or purified Kgp were incubated with quenchable Cy5 probe compound 71 (1 μM) for 1 h at 37° C. with shaking. Then, samples were denatured with NUPAGE LDS sample buffer (Thermo Fisher) containing 50 mM DTT at 95° C. for 10 min and subjected to SDS-PAGE electrophoresis using a Criterion 4-15% precast gel (Bio-Rad) and Tris/Glycine/SDS running buffer (Bio-Rad). The gel was run at 75V for 10 min and then 125V for 1.5 h. The gel was then removed from the plastic cassette and subjected to Cy5 visualization with a ChemiDoc imaging system (Bio-Rad).
Samples were labeled with quenchable Cy5 probe compound 71 (1 μM) for 1 h at 37° C. with shaking. For immunoprecipitation of Cy5 labeled Kgp, the samples were then incubated with 10 μg of rabbit polyclonal CAB102 antibody with rotation overnight at 4° C. Then, samples were incubated with prewashed Dynabead Protein G beads with rotation for 20 min at room temperature. The samples were washed 4 times with 200 μL of washing buffer, using a magnetic rack. […]

The subject of a further experiment is P. gingivalis W83. In words: Mouse periodontitis model, GAD67 positive interneurons in the dentate gyrus. In kind it is in vivo, BALB/C mice. The conditions noted are these: 10 weeks, infected treated mice vs mock-infected. How it is done:
At the beginning of the study, eight week old BALB/C female mice received antibiotic in drinking water (sulfamethoxazolum 0.87 mg/mL, trimethoprimum 0.17 mg/mL) for 10 days to reduce microbiome protection from experiment infection. Experimental periodontitis was induced by ligature placement followed by multiple exposures to P. gingivalis. During the ligature procedure mice were anesthetized with an intraperitoneal injection of ketamine (200 mg/kg) and xylazine (10 mg/kg), and eyes were lubricated with ointment (Puralube Vet; Pharmaderm, Melville, N.Y.). Next, a 5-0 silk ligature (Roboz Surgical Instrument Co.) was tied around the upper maxillary left and right second molar. Sutures were applied and tied gently to prevent damage to the periodontal tissue.
Mice (n=8-10/arm) were infected for 6 weeks every other day. For infection, […]. of bacteria solution were applied topically to the buccal surface of the maxillae. For preparation of the bacteria, P. gingivalis W83 (ATCC, Rockville, Md.) was streaked on Tryptic Soy Broth (TSB) agar plates (5% sheep blood, supplemented with 0.5 mg/mL L-cysteine, 5 μg/mL hemin, and 0.5 μg/mL vitamin K) and grown under anaerobic conditions at 37° C. for 5-7 days. […]
Quantification of GAD67 positive interneurons was performed with CellSens 1.5. […] The number of cells on every 40th section through the hippocampus was counted. […]

Sequence of Kgp (Q51817 229-737 limits assumed): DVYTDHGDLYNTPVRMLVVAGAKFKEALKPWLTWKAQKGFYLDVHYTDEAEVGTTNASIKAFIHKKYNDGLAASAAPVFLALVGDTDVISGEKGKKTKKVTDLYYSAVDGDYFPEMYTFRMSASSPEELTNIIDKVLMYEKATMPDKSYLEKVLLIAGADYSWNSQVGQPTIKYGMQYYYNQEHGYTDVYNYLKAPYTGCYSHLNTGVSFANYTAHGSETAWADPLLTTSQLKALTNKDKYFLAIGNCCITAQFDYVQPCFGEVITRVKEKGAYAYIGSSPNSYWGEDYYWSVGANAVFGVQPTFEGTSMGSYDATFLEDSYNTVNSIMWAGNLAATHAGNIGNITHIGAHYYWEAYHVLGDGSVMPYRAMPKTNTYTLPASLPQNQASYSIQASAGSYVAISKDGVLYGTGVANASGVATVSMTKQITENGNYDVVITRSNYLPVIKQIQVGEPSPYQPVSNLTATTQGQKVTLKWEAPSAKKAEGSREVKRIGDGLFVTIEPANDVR
Sequence of Cathepsin H (P09668 98-335, species assumed): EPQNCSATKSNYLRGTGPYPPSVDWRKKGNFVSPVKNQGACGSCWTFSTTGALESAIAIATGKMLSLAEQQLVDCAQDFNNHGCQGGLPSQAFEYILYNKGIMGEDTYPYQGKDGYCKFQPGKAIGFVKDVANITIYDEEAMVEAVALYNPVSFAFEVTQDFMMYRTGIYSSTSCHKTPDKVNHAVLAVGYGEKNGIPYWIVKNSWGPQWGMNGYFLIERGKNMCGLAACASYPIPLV

On to `NCCCC[C@H](NC(=O)C1CCCC1)C(=O)COc1c(F)ccc(F)c1F` [Compound 1, (S)—N-(7-amino-2-oxo-1-(2,3,6-trifluorophenoxy)heptan-3-yl)cyclopentanecarboxamide], for which the IC50 on Cathepsin H came to 560 nM. Besides, the “competition with probe compound 71 for Kgp active site” value at Kgp is given as “competes for active site binding”. In the experiment on P. gingivalis W83, the “GAD67 positive interneurons in the dentate gyrus” value is reported as “at the same level as the GAD67^+ cells in the mock-infected mice”.

For the origin of these results see patent US10730826B2, “Ketone inhibitors of lysine gingipain” (CORTEXYME, INC., priority 2016, dated 2020).
